Legend:
[1] = in vivo; cited from earlier work
[2] = Initial mouse tolerability experiment with beryllium and chelator; assay type: in vivo, mice; details: beryllium and chelator administration, 48-hour experiment
Protocol: LLNL-IBC#2004-029. Two sets of animal experiments were performed.

[3] = Site-300 beryllium oxide debris particle chelation (ICP-MS of filtrates); assay type: physicochemical; details: pH 7, equilibrated 3 days
Protocol: The aims of this investigation were not limited to the study of beryllium in biological fluids and systems. A good chelator in the body is likely a good chelator in the environment. […] Particles were obtained from the Contained Firing Facility (CFF) at LLNL Site 300. Approximately 500 mg of beryllium oxide debris was weighed in a tared polyethylene vials and varying concentrations of APMDP chelator (pH adjusted to pH 7) were added to each vial. The vials were left to stand for 3 days, with manual shaking performed for 2 minutes each, twice a day. Samples were then filtered through a 0.2 um membrane and filtrates were analyzed by ICP-MS.

[4] = cited from earlier work

| Compound | LD-50 [1] | adverse effect on mice [2] | other results |
| --- | --- | --- | --- |
| CC(N)c1ccccc1 (centres unmarked) [a-methylbenzylamine] | 940 mg/kg |  |  |
| O=S(=O)(O)c1cc(O)c(O)c(S(=O)(=O)O)c1 [tiron] |  | did not adversely affect the mice |  |
| NC(c1ccccc1)(P(=O)(O)O)P(=O)(O)O [APMDP, α-aminobenzyl-α,α,-diphosphoric acid] |  | did not adversely affect the mice | dissolution of insoluble BeO fines [3]: can be dissolved |
| NCc1ccccc1 [Benzylamine] | 128 mg/kg |  |  |
| CC(c1ccccc1)N(C)C (centres unmarked) [N,N-dimethyl-a-methylbenzylamine] | 420 mg/kg |  |  |
| O=P(O)(O)c1ccccc1 [phenylphosphonic acid] |  |  | water solubility [4]: water soluble; toxic at [1]: 110 mg/kg |
